{"source": "patent US20250277784A1", "about": "“EXPRESSION SYSTEMS FOR THE ALPHA6BETA4 NICOTINIC ACETYLCHOLINE RECEPTOR AND METHODS OF USE THEREOF” (Janssen Pharmaceutica NV, priority 2021, published 2025)", "key": {"Human α6β4 nAChR [1]": {"target": "T1, Human α6β4 nAChR (Homo sapiens, UniProt P30926+Q15825)", "T1 construct": "expressed in transfected cells", "T1 sequence (Q15825 26-494)": "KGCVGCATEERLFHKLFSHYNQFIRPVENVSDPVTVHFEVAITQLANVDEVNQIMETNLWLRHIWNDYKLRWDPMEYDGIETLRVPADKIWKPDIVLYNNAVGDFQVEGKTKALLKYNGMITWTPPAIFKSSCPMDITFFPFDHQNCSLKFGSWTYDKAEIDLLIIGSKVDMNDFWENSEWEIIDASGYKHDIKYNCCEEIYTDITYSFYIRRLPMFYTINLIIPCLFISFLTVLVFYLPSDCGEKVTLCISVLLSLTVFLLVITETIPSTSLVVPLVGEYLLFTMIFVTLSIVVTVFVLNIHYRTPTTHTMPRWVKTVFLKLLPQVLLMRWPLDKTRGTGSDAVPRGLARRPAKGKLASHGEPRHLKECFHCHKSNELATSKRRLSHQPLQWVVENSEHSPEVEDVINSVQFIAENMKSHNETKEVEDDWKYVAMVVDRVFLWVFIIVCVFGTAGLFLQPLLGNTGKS", "T1 sequence (P30926 22-498)": "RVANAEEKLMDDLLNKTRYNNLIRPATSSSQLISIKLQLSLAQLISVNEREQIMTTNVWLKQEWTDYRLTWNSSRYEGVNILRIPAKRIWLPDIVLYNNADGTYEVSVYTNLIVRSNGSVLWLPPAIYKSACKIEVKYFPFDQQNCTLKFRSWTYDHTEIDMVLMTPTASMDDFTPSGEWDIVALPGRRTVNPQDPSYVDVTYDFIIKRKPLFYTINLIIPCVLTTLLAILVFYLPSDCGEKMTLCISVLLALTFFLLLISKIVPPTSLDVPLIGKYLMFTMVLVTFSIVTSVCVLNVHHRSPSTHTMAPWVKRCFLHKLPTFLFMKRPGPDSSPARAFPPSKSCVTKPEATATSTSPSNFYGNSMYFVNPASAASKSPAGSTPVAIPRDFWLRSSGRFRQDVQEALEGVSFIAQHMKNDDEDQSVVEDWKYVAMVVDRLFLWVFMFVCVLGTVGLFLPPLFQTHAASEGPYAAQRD", "assay": "FLIPR assay, antagonist on nicotine-evoked calcium flux (two-addition protocol)", "assay_type": "cell-based", "settings": "HEK293T cells, 1st addition test compound 3 min, 2nd addition nicotine (EC80, 15 μM) 3.5 min, FIG. 2", "protocol": "In one embodiment, FLIPR assay is used to identify antagonists of nicotine-evoked α6β4 nAChR mediated calcium flux. In this assay, the recombinant cells are incubated with a calcium sensitive dye (such as Ca5). Using a double addition protocol, the recombinant cells are exposed to test compounds during the first duration, and to nicotine (e.g., at EC80 (15 μm)) during the second duration. Thereafter, the calcium flux is imaged by FLIPR^TETRA. […]\nHuman α6 and β4 subunits of α6β4 nAChR were co-transfected with BARP, SULT2B1, and CHAT in HEK293T cells and incubated at 30° C. for 24-48 hour. […] Nicotine-evoked calcium flux was then measured using a FLIPR^TETRA imager and the final FLIPR signals were averaged and plotted (FIG. 2)."}, "Human α6β4 nAChR [2]": {"target": "T1, Human α6β4 nAChR", "assay": "FLIPR assay, agonist-evoked calcium flux in recombinant cells co-transfected with BARP, SULT2B1 and CHAT", "assay_type": "cell-based", "protocol": "In one embodiment, FLIPR assay is used to identify agonists of α6β4 nAChR mediated calcium flux. In this assay, the recombinant cells are incubated with a calcium sensitive dye (such as Ca5), exposed to a test compound, and calcium flux is imaged by FLIPR^TETRA.\n• Prepare a cell suspension of 1×10^6 cells per mL by centrifuging cells and resuspending in fresh, prewarmed media; • With 1900 mL of cells shaking, prepare the following transfection mix in 50 ml of OptiPro SFM Medium; • Add 2.5 mL FreeStyle MAX reagent to 47.5 mL of OptiPro SFM to an empty 50 ml tube; • In a second 50 ml tube, add 2.5 mg total DNA (α6, β4, BARP, CHAT, and SULT2B1 at a ratio of 1:1:2:1:1) in OptiPro SFM to a final volume of 50 ml and vortex gently; • Transfer the diluted DNA to the FreeStyle MAX reagent and gently mix the solution immediately and incubate for 10 minutes at room temperature; • Transfer the 100 ml FreeStyle MAX/DNA transfection mix to the cells and homogenize the culture; • Incubate 1 hour at 37° C. with 8% CO2; • Pour cells into sterile 500 mL tubes; • Spin at 1000 rpm for 7 minutes; • Remove supernatant; and • Resuspend Cells in Plating Media.\n• Ethanol vials to decontaminate; • Pour cells into 50 ml conical tube; • Slowly add 10 ml warmed plating media drop wise; • Pipet up and down gently a few times to dislodge pellet if it exists; • Spin at 1000 RPM for 7 min, aspirate supernatant, and resuspend in 25 ml plating; • Seed 35,000 cells/well in 35 μL (1.0×10^6 cells/mL); and • Incubate plates for 24 hours at 37° C. Then transfer the plate to 30° C. with 5% CO2 in a humidified atmosphere for 24-48 hours.\n• Wash plate with plate washer (4 washes×100 μL/wash) using compound dilution buffer, leaving 25 µL in each well; • Add 25 μL of 2× Ca6 dye to each well; • Incubate at room temperature for 1 hour; • Wash plate with plate washer (4 washes×100 μL/wash) using compound dilution buffer, leaving 50 µL in each well; • Transfer plates to FLIPR for compound addition. Concentration Response Curves for Agonist-Evoked Activity of α6β4 nAChR\nHuman α6 and β4 subunits of α6β4 nAChR were co-transfected with BARP, SULT2B1, and CHAT in HEK293T cells and incubated at 30° C. for 24-48 hours. The transfected cells were incubated for one hour at room temperature with Ca5 dye followed by stimulating with agonists for 3.5 minutes. Agonist-evoked calcium flux was measured using a FLIPR^TETRA imager and final FLIPR signals were averaged and plotted (FIG. 1)."}, "[3]": {"test_system": "patients with diabetic peripheral neuropathic pain", "settings": "phase 2 clinical trial; cited from earlier work"}, "α6 knockout mice": {"test_system": "α6 knockout mice", "settings": "following both inflammatory and neuropathic injuries; cited from earlier work"}, "[4]": {"settings": "HEK293T cells, incubated at 30° C. for 24-48 hours, Ca5 dye, agonist stimulation 3.5 minutes, FIG. 1"}}, "note": "Where two headings read alike, the source gives them in different places.", "data": [{"smiles": "CCN1C[C@]2(COC(=O)c3ccccc3N3C(=O)C[C@H](C)C3=O)CC[C@H](OC)[C@@]34[C@@H]5C[C@H]6[C@H](OC)[C@@H]5[C@](O)(C[C@@H]6OC)[C@@](O)([C@@H](OC)[C@H]23)[C@@H]14", "note": "[MLA, methyllycaconitine]", "values": [{"measurement": "Nicotine-evoked calcium flux (FLIPR signal)", "setting": "Human α6β4 nAChR [1]", "value": "decreases the nicotine-evoked calcium flux in a dose-dependent manner"}]}, {"smiles": "c1cncc(OC[C@@H]2CCN2)c1", "note": "[A-85380]", "values": [{"measurement": "Agonist-evoked calcium flux (FLIPR signal)", "setting": "Human α6β4 nAChR [2]; [4]", "value": "enhances calcium flux in a dose-dependent manner"}]}, {"smiles": "Clc1ccc(OC[C@H]2CCN2)cn1", "note": "[ABT-594]", "values": [{"measurement": "Efficacy for diabetic neuropathy", "setting": "[3]", "value": "robust efficacy"}, {"measurement": "Side effects", "setting": "[3]", "value": "unacceptable side effects"}, {"measurement": "Agonist-evoked calcium flux (FLIPR signal)", "setting": "Human α6β4 nAChR [2]; [4]", "value": "enhances calcium flux in a dose-dependent manner"}]}, {"smiles": "c1cnc2cc3c(cc2n1)[C@@H]1CNC[C@H]3C1", "note": "[varenicline]", "values": [{"measurement": "Agonist-evoked calcium flux (FLIPR signal)", "setting": "Human α6β4 nAChR [2]; [4]", "value": "enhances calcium flux in a dose-dependent manner"}]}, {"smiles": "Clc1ccc(C2CC3CCC2N3)cn1", "note": "(stereo not drawn) [epibatidine]", "values": [{"measurement": "Agonist-evoked calcium flux (FLIPR signal)", "setting": "Human α6β4 nAChR [2]; [4]", "value": "enhances calcium flux in a dose-dependent manner"}]}, {"smiles": "CN1CCCC1c1cccnc1", "note": "(stereo not drawn) [nicotine]", "values": [{"measurement": "Analgesic effects", "setting": "α6 knockout mice", "value": "absent"}, {"measurement": "Agonist-evoked calcium flux (FLIPR signal)", "setting": "Human α6β4 nAChR [2]", "value": "enhances calcium flux in a dose-dependent manner"}, {"measurement": "Nicotine EC80", "setting": "Human α6β4 nAChR [2]", "value": 15, "unit": "µM"}]}, {"smiles": "Clc1cc(N2C[C@@H]3CN[C@@H]3C2)cnc1Cl", "note": "[ABT-894]", "values": [{"measurement": "Agonist-evoked calcium flux (FLIPR signal)", "setting": "Human α6β4 nAChR [2]; [4]", "value": "enhances calcium flux in a dose-dependent manner"}]}, {"smiles": "O=c1cccc2n1C[C@@H]1CNC[C@H]2C1", "note": "[cytisine]", "values": [{"measurement": "Agonist-evoked calcium flux (FLIPR signal)", "setting": "Human α6β4 nAChR [2]", "value": "enhances calcium flux in a dose-dependent manner"}]}]}
